Values of other authors as cited in patent US20140248600A1, “BLOOD TREATMENT APPARATUS ADAPTED TO PRESERVE PARTS THEREOF” (Gambro Lundia AB, priority 2011, published 2014).

Tested on: C. albicans
Details: resulting pH: acetic acid 3.6; citric acid 2.4; succinic acid 2.8; tartaric acid 2.3; fumaric acid 2.6; maleic acid 2.0; control pH 5.5

| Compound | Growth of C. albicans with acid added to the medium |
| --- | --- |
| CC(=O)O [acetic acid] | grew as well as the control |
| O=C(O)CC(O)(CC(=O)O)C(=O)O [citric acid] | grew as well as the control |
| O=C(O)/C=C/C(=O)O [fumaric] | inhibition of growth |
| O=C(O)/C=C\C(=O)O [maleic acid] | inhibition of growth |
| O=C(O)CCC(=O)O [succinic acid] | grew as well as the control |
| O=C(O)C(O)C(O)C(=O)O (stereo not drawn) [tartaric acid] | grew as well as the control |
